Data reported in patent publication EP2785358B1, “INSULIN-MIMETICS AS THERAPEUTIC ADJUNCTS FOR BONE REGENERATION” (priority 2011, dated 2013).
Like-named read-outs stand apart in the source and are kept apart here.

Columns and labels:
femur fractures [1] = tested on: femur fractures
Text: The fractured femora were resected at seven and ten days post-fracture, decalcified, dehydrated, embedded in paraffin, and sectioned using standard histological techniques. Sections were stained with Masson's Trichrome (Accustain™ Trichrome Staining kit, Sigma Diagnostics, St. Louis, MO) for histological observation using an Olympus BH2-RFCA microscope (Olympus Optical Co., Ltd., Shinjuku-ku, Tokyo, Japan). Digital images were collected using a Nikon DXM1200F digital camera (Nikon, Tokyo, Japan). Cartilage, new bone, and total callus area were measured from the digital images using Image-Pro Plus software (version 5, Media Cybernetics, Inc., Silver Spring, MD). Total cartilage and new bone area were normalized to total callus area and expressed as the percent area. Two independent reviewers were used to minimize inconsistencies.

femur fractures [2] = tested on: femur fractures; set-up: Percent Effective Shear Modulus / Percent Effective Shear Stress: scale not given: direction of the effect not stated beside the values; settings: no carrier, 4 weeks post-fracture; for Percent Effective Shear Modulus / Percent Effective Shear Stress / Percent Maximum Torque to Failure / Percent maximum torsional rigidity: normalized to intact femur
Method: Torsional testing was conducted at 4 weeks post-fracture, using a servohydraulics machine (MTS Sys. Corp., Eden Prairie, MN) with a 20 Nm reaction torque cell (Interface, Scottsdale, AZ). Femurs were tested to failure at a rate of 2.0 deg/sec at four weeks post-fracture. […] In order to compare the biomechanical parameters between different groups, the data was normalized by dividing each fractured femur value by its corresponding intact, contralateral femur value. Torsional mechanical testing is limited by differences in gauge length during bone potting in Field's metal. Placement and dimension of fracture gap can contribute to standard deviations.

femur fractures [3] = settings: four weeks post-fracture
Text: X-rays are taken at two-week intervals to the day of euthanasia. After euthanasia x-rays are taken as well. To take x-rays, animals will be given a half dose of anesthesia. All groups will be monitored closely for four days after surgery for infection, and the ability to ambulate freely.

[4] = manganese chloride 0.125 mg/kg, 7 days post fracture
[5] = manganese chloride 0.125 mg/kg, 10 days post fracture
[6] = manganese chloride 0.3 mg/kg, 7 days post fracture
[7] = manganese chloride 0.3 mg/kg, 10 days post fracture
[8] = manganese chloride 0.87 mg/kg, 7 days post fracture
[9] = manganese chloride 0.87 mg/kg, 10 days post fracture

With `[Cl][Mn][Cl]` [MnCl2, manganese chloride] the “% Cartilage” value (femur fractures [1]; [4]) was 4.843 ± 2.3 n=6%, the “% new bone” value (femur fractures [1]; [4]) was 15.518 ± 2.69 n=6% and the “% Cartilage” value (femur fractures [1]; [5]) was 5.9 ± 4.47 n=5%. The “% new bone” value (femur fractures [1]; [5]) was 14.69 ± 11.74 n=5%, the “% Cartilage” value (femur fractures [1]; [6]) was 2.859 ± 1.09 n=7% and the “% new bone” value (femur fractures [1]; [6]) was 15.604 ± 2.39 n=7%. For the same compound, the “% Cartilage” value (femur fractures [1]; [7]) was 11.051 ± 3.05 n=9%, the “% new bone” value (femur fractures [1]; [7]) was 18.866 ± 2.28^∗,# n=9% and the “% Cartilage” value (femur fractures [1]; [8]) was 4.355 ± 3.99 n=3%. For the same compound, the “% new bone” value (femur fractures [1]; [8]) was 16.492 ± 3.59 n=3%, the “% Cartilage” value (femur fractures [1]; [9]) was 8.227 ± 2.24 n=3% and the “% new bone” value (femur fractures [1]; [9]) was 15.948 ± 3.04 n=3%. The “Effective Shear Modulus” value (femur fractures [2]; MnCl2 0.083 mg/kg local) was 8.7×10^2 ± 4.9×10^2 MPa, the “Effective Shear Stress” value (femur fractures [2]; MnCl2 0.083 mg/kg local) was 30 ± 8 MPa and the “Maximum Torque to Failure” value (femur fractures [2]; MnCl2 0.083 mg/kg local) was 272 ± 39 Nmm. The “Maximum Torsional Rigidity” value (femur fractures [2]; MnCl2 0.083 mg/kg local) was 2.6×10^4 ± 1.2×10^4 Nmm^2/rad, the “Percent Effective Shear Modulus” value (femur fractures [2]; MnCl2 0.083 mg/kg local) was 8 ± 7% and the “Percent Effective Shear Stress” value (femur fractures [2]; MnCl2 0.083 mg/kg local) was 8 ± 4%. The “Percent Maximum Torque to Failure” value (femur fractures [2]; MnCl2 0.083 mg/kg local) was 42 ± 5%, the “Percent maximum torsional rigidity” value (femur fractures [2]; MnCl2 0.083 mg/kg local) was 56 ± 30% and the “Effective Shear Modulus” value (femur fractures [2]; MnCl2 0.125 mg/kg local) was 6.4×10^2 ± 8.8×10^1 MPa. For the same compound, the “Effective Shear Stress” value (femur fractures [2]; MnCl2 0.125 mg/kg local) was 21 ± 6 MPa, the “Maximum Torque to Failure” value (femur fractures [2]; MnCl2 0.125 mg/kg local) was 351 ± 59^∗ Nmm and the “Maximum Torsional Rigidity” value (femur fractures [2]; MnCl2 0.125 mg/kg local) was 4.2×10^4 ± 1.1×10^4 Nmm^2/rad. For the same compound, the “Percent Effective Shear Modulus” value (femur fractures [2]; MnCl2 0.125 mg/kg local) was 16 ± 11%, the “Percent Effective Shear Stress” value (femur fractures [2]; MnCl2 0.125 mg/kg local) was 14 ± 5% and the “Percent Maximum Torque to Failure” value (femur fractures [2]; MnCl2 0.125 mg/kg local) was 54 ± 5%. For the same compound, the “Percent maximum torsional rigidity” value (femur fractures [2]; MnCl2 0.125 mg/kg local) was 103 ± 40^∗ Percent, the “Effective Shear Modulus” value (femur fractures [2]; MnCl2 0.25 mg/kg local) was 8.1×10^2 ± 5.0×10^2 MPa and the “Effective Shear Stress” value (femur fractures [2]; MnCl2 0.25 mg/kg local) was 32 ± 11 MPa. For the same compound, the “Maximum Torque to Failure” value (femur fractures [2]; MnCl2 0.25 mg/kg local) was 344 ± 84^∗ Nmm, the “Maximum Torsional Rigidity” value (femur fractures [2]; MnCl2 0.25 mg/kg local) was 3.4×10^4 ± 1.6×10^4 Nmm^2/rad and the “Percent Effective Shear Modulus” value (femur fractures [2]; MnCl2 0.25 mg/kg local) was 14 ± 9%. For the same compound, the “Percent Effective Shear Stress” value (femur fractures [2]; MnCl2 0.25 mg/kg local) was 16 ± 6%, the “Percent Maximum Torque to Failure” value (femur fractures [2]; MnCl2 0.25 mg/kg local) was 55 ± 19% and the “Percent maximum torsional rigidity” value (femur fractures [2]; MnCl2 0.25 mg/kg local) was 80 ± 34^∗ Percent. For the same compound, the “Effective Shear Modulus” value (femur fractures [2]; MnCl2 0.30 mg/kg local) was 7.6×10^2 ± 9.2×10^2 MPa, the “Effective Shear Stress” value (femur fractures [2]; MnCl2 0.30 mg/kg local) was 27 ± 23 MPa and the “Maximum Torque to Failure” value (femur fractures [2]; MnCl2 0.30 mg/kg local) was 323 ± 135^∗ Nmm. For the same compound, the “Maximum Torsional Rigidity” value (femur fractures [2]; MnCl2 0.30 mg/kg local) was 3.0×10^4 ± 2.6×10^4 Nmm^2/rad, the “Percent Effective Shear Modulus” value (femur fractures [2]; MnCl2 0.30 mg/kg local) was 10 ± 12% and the “Percent Effective Shear Stress” value (femur fractures [2]; MnCl2 0.30 mg/kg local) was 16 ± 12%. The “Percent Maximum Torque to Failure” value (femur fractures [2]; MnCl2 0.30 mg/kg local) was 50 ± 22%, the “Percent maximum torsional rigidity” value (femur fractures [2]; MnCl2 0.30 mg/kg local) was 50 ± 37% and the “Effective Shear Modulus” value (femur fractures [2]; MnCl2 0.50 mg/kg local) was 6.2×10^2 ± 3.5×10^2 MPa. The “Effective Shear Stress” value (femur fractures [2]; MnCl2 0.50 mg/kg local) was 19 ± 9 MPa, the “Maximum Torque to Failure” value (femur fractures [2]; MnCl2 0.50 mg/kg local) was 230 ± 83 Nmm and the “Maximum Torsional Rigidity” value (femur fractures [2]; MnCl2 0.50 mg/kg local) was 2.9×10^4 ± 1.2×10^4 Nmm^2/rad. The “Percent Effective Shear Modulus” value (femur fractures [2]; MnCl2 0.50 mg/kg local) was 17 ± 13%, the “Percent Effective Shear Stress” value (femur fractures [2]; MnCl2 0.50 mg/kg local) was 14 ± 7% and the “Percent Maximum Torque to Failure” value (femur fractures [2]; MnCl2 0.50 mg/kg local) was 38 ± 15%. The “Percent maximum torsional rigidity” value (femur fractures [2]; MnCl2 0.50 mg/kg local) was 61 ± 16%, the “mineralized tissue on radiographs” value (femur fractures [3]; MnCl2 0.25 mg/kg) was “increased mineralized tissue than saline controls” and the union on radiographs (femur fractures [3]; MnCl2 group, saline control had no evidence of union) was “union at the subperiosteal bony area and at the callus”.
